# Measurements from ChEMBL document CHEMBL3507680, “University of Dundee, Gates Library screen for HepG2 cell viability”.
# Experiment: Human HepG2 cell viability assay in 384 well format
# Assay type: toxicity, cell-based
# Design: dose 125 nL, time 70.5 hour; concentration not given beside the values
# Conditions: HepG2 cells, read-out: Inhibition
row,Structure (SMILES),cytotoxicity at 70.5 h
1,Cc1nc(N2CCN(C)CC2)ncc1C(=O)N1CCN(C)CC1,-4.76%
2,CCOCCCNC(=O)NCc1c(C)nn(C)c1C,22.3%
3,Cn1nnc(NCc2ccccc2OCc2ccc(Cl)cc2)n1,29.2%
4,CCN1C(=O)CCCC12CCCN(C(=O)c1sccc1C)C2 (centres undefined),-9.33%
5,CCN1C(=O)CCCC12CCCN(C(=O)c1occc1C)C2 (centres undefined),-10.4%
6,CCN1C(=O)CCCC12CCCN(C(=O)c1cc(C)oc1C)C2 (centres undefined),-9.36%
7,CC(=O)N1CCC2(C1)CN(C(=O)C1CCOC1)C2 (centres undefined),-11.2%
8,Cn1nc(C2CCCN(C(=O)Cc3ccsc3)C2)c2nccnc21 (centres undefined),-9.48%
9,Cc1cc2c(=O)n3c(nc2s1)CCN(Cc1ccncc1)CC3,-13.5%
10,OC1CCCN(Cc2c(-c3ccco3)[nH]c3ncccc23)C1 (centres undefined),-4.41%
11,Cc1ccc(=O)n(CC2(O)CCN(Cc3cnc(C)nc3)CC2)n1,-10.4%
12,CC(=O)N1CCCCC1c1cc(CO)[nH]n1 (centres undefined),-18.5%
13,Cc1cc2c(=O)n3c(nc2s1)CCN(C(=O)c1ccncc1)CC3,-20%
14,Cc1cccc2cc(CNCCCN3CCOCC3)c(=O)[nH]c12,33.6%
15,CS(=O)(=O)N1CCC(C(=O)NC(Cc2ccsc2)c2ccccn2)CC1 (centres undefined),-3.67%
16,Cc1cc(C)c2cc(CNCC3CCCO3)c3nn(C)c(=O)n3c2c1 (centres undefined),-6.37%
17,C=Cn1ncc(CN2C[C@@H]3CCCN3C[C@@H]2Cc2ccccc2)c1C,-2.66%
18,CC(=O)N1CCCC(Cc2cncc(Br)c2)CC1 (centres undefined),19.5%
19,CC(C)N1CCC(Cc2cc(-c3cccc(C(=O)O)c3)ncn2)C1 (centres undefined),-15%
20,CCC(=O)N1CCCC1c1nccnc1Nc1ncccn1 (centres undefined),-15%
21,CN1CCCC(c2cccc(Cc3ccccc3Cl)n2)C1 (centres undefined),-3.75%
22,C=Cn1ncc(CN2C[C@@H]3CCCN3C[C@H]2CCSC)c1C,-12.3%
23,Cc1cnccc1CN1CC[C@@](C)(O)[C@H](Oc2ccccc2)C1,22.4%
24,Cc1ncsc1-c1nnc(C2CCN(Cc3ccc(F)cc3)CC2)o1,8.74%
25,Cc1cnccc1CN1C[C@@H](O)[C@H](Oc2cccc(F)c2)C1,-3.81%
26,O=C(c1cnco1)N1CCCC(Cc2cccc3ncccc23)C1 (centres undefined),-0.138%
27,Cc1cc(Nc2nc(C)cs2)nc(C2CCCCN2CCO)n1 (centres undefined),32.4%

row,Structure (SMILES),cytotoxicity at 70.5 h
1,CCc1cc(O)nc(C2CCCN2C(=O)c2cccnc2)n1 (centres undefined),20.7%
2,Cc1ncsc1-c1nnc(C2CCN(CC3CCCCC3)CC2)o1,-8.62%
3,Cc1nccn1-c1cccc(C2CCCN(C(=O)c3cc[nH]n3)C2)n1 (centres undefined),24.4%
4,CN(C)S(=O)(=O)N1CCCC(c2cccc(Cc3ccccc3)n2)C1 (centres undefined),19%
5,Cc1csc(Nc2nccnc2C2CCCN2C(=O)C(C)C)n1 (centres undefined),-18.2%
6,COCC(=O)N1CCC(c2nccnc2Oc2cccnc2C)CC1,-34%
7,O=S(=O)(c1ccccc1)N1CCCCC1c1cc[nH]n1 (centres undefined),21.8%
8,CNc1cc(C2CCCN2C(=O)c2ccc3oc(=O)n(C)c3c2)ccn1 (centres undefined),-12.4%
9,Cc1c[nH]nc1C1CCCCN1C(=O)Cn1cc(Cl)cn1 (centres undefined),-15.8%
10,CNc1cncc(C2CCCN2C(=O)c2ccc3oc(C)cc3c2)n1 (centres undefined),-8.56%
11,CNc1cncc(C2CCCN2Cc2c[nH]cn2)n1 (centres undefined),-18.1%
12,O=C(c1cc[nH]n1)N1CCCC(c2cccc(-n3ccnc3)n2)C1 (centres undefined),-10.3%
13,Cc1ccccc1-c1cncc(C2CCN(C(C)C)CC2)n1,-22.4%
14,O=C1NCC2(CCCN(Cc3ccc(Cl)s3)C2)Oc2ccccc21 (centres undefined),-12.5%
15,CO[C@@H]1CC[C@@H](N(C)C(=O)COc2ccc(F)cc2)[C@H]1O,-28.5%
16,CNC(=O)c1ccc(C2CN(C(=O)COC)CCO2)nc1 (centres undefined),-16.7%
17,CNc1nc(C2CCCN2C(C)=O)nc2c1CCN(CC1CC1)C2 (centres undefined),-13.7%
18,CC(C)c1cc(C(=O)N(C)Cc2cccc3ncccc23)n(C)n1,-3.18%
19,CCCN(C(=O)COC)c1nc2c(s1)CCc1c-2cnn1C,3.43%
20,NC(=O)C1(CCCc2cccnc2)CCCN(c2ncccn2)C1 (centres undefined),-13.9%
21,NC[C@H]1CC[C@H](C(NC(=O)c2cccc(F)c2)c2ccccn2)CC1 (some centres undefined),41%
22,O=C(NC[C@@]1(COc2cnccn2)C[C@@H](O)[C@@H](O)C1)C1CC1,15%
23,CCc1nc2ccccc2c(=O)n1CC1(O)CCN(S(C)(=O)=O)CC1,-20.2%
24,c1ccc(-c2ccc(C3CNCCO3)nc2)cc1 (centres undefined),-19.9%
25,Cc1ccc(CN2CCc3nnc(CN4CCCC4=O)n3CC2)o1,-3.79%
26,Cc1cc(C[C@@H]2CCC[C@H]2NCc2ccccc2C(F)(F)F)on1,-17.3%
27,Cc1cc(C[C@@H]2COC[C@H]2NCc2ccccc2C(F)(F)F)on1,-11%
